Experiment in all cases: NCI anticancer screen, dose series, 48 h
Assay [1] deals with MALME-3M melanoma.
For assay [2], the system named is OVCAR-4 ovarian.
In assay [3] the test system is IGROV1 ovarian.
Assay [4] relates to SF-539 CNS.
The subject of assay [5] is UACC-62 melanoma.
Assay [6] has as its system NCI-H226 lung.
Assay [7] deals with SF-295 CNS.
The test system of assay [8] is HCT-116 colon.
Assay [9] has as its system NCI-H522 lung.
Assay [10] deals with PC-3 prostate.

The structures appear in SMILES notation.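 All cell lines were grown in 96-well plates and treated with compound for 48 hours. At the GI50, growth is halved. TGI denotes the concentration required for complete inhibition of growth.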 Some results are limits rather than exact numbers.

Regarding `c1cc(-c2cn3c(n2)SCC3)ccn1`, the TGI is more than 100 µM in assay [1]; more than 100 µM in assay [2]; more than 100 µM in assay [3]; more than 65.2 µM in assay [4]; more than 100 µM in assay [5]; more than 100 µM in assay [6]. The values for the TGI in [7], in assay [8] and in assay [9] were more than 100 µM, more than 60.4 µM and more than 100 µM, respectively.
As to `CCOC(=O)/C(I)=C/c1cc(OC)c(OC)c(OC)c1`, the TGI was 26.2 µM in assay [1]; 52.4 µM in assay [2]; 93.7 µM in assay [3]; more than 100 µM in [4]; 16.1 µM in [5]; 25.9 µM in assay [6]. In addition, the TGI is 54.4 µM in [7], 12.5 µM in [8] and 12.9 µM in assay [9].
Consider `COc1ccc(-c2cc(=O)c3c(O)cccc3o2)c(OC)c1OC`, for which the TGI is more than 100 µM in assay [1]; more than 100 µM in [2]; more than 100 µM in [3]; 86.9 µM in assay [4]; more than 100 µM in assay [5]; more than 100 µM in assay [6]. The TGI in assay [7], in [8] and in [9] was more than 100 µM each time.
Take `O=C(O)CCNS(=O)(=O)c1ccc([N+](=O)[O-])cc1`: the TGI in assay [1], in [2], in assay [3], in assay [4], in assay [5] and in assay [6] was more than 100 µM throughout. In addition, the TGI in assay [7] and in assay [9] was more than 100 µM each time.
Turning to `Cc1ccccc1-n1c(N)c(-c2nc3ccccc3[nH]2)sc1=S`, the TGI was 45.1 µM in assay [1]; 78.3 µM in assay [2]; 57 µM in assay [3]; 41.1 µM in assay [4]; 37.1 µM in [5]; 74.4 µM in assay [6]. For the same molecule, the TGI in assay [7] stood at 42.4 µM; in assay [9] it was 50.3 µM.
On to `COc1ccc(OC(=O)CC2Cc3cc(OC)c(OC)c(OC)c3-c3ccc(SC)c(=O)cc32)cc1` (centres undefined), for which the TGI in [1] was more than 100 µM; in assay [2] it was more than 100 µM; in assay [3], more than 100 µM; in assay [4], 0.54 µM; in assay [5], 21 µM; in assay [6], 0.782 µM. In addition, the TGI in assay [8] was found to be 11.2 µM; in assay [9], 0.527 µM.
Regarding `COc1cc(C2(C)SCCCS2)cc(OC)c1OC`, the TGI in assay [1], in assay [2], in assay [3], in [4], in assay [5] and in assay [6] was more than 100 µM each time. The TGI in assay [7], in assay [8] and in [9] was more than 100 µM in each case.
In the case of `CC1=C(C(=O)Nc2ccc(Cl)c(Cl)c2)C(c2ccc([N+](=O)[O-])cc2)C(C(=O)Nc2ccc(Cl)c(Cl)c2)=C(C)N1`, the TGI is 7.06 µM in assay [1]; 11.8 µM in assay [2]; 14.8 µM in assay [3]; 12.1 µM in assay [4]; 4.46 µM in assay [5]; 11.6 µM in assay [6]. Further, the values for the TGI in [7], in assay [8] and in [9] were 9.24 µM, 3.51 µM and 8.85 µM, respectively.
Turning to `N#CNc1nc(N)c(-c2ccc(Cl)cc2)c(C(=O)Nc2nccs2)n1`, the TGI in [1], in assay [2], in [3], in assay [4], in assay [5] and in [6] was more than 100 µM each time. Besides, the TGI in assay [7], in assay [8] and in [9] was more than 100 µM throughout.
Take `O=C(Cc1nc2ccccc2o1)C(=O)Nc1cccc(C(F)(F)F)c1`: the TGI in [1], in assay [2], in [3], in [4], in assay [5] and in assay [6] was more than 100 µM in each case. For the same molecule, the TGI in assay [7], in assay [8] and in assay [9] was more than 100 µM throughout.
For `CCCC(S(=O)(=O)c1ccccc1)S(=O)(=O)c1ccccc1`, the TGI in assay [1], in assay [2], in [3], in assay [4], in assay [5] and in assay [6] was more than 100 µM in each case. Also, the TGI in assay [7] and in assay [8] was more than 100 µM throughout.
Regarding `O=C(NNS(=O)(=O)c1ccc(Cl)cc1Cl)c1cccnc1Nc1ccc(Cl)cc1`, the GI50 is 11.1 µM in assay [1]; 28.7 µM in [2]; 19 µM in assay [4]; 22 µM in assay [5]; 23.9 µM in assay [6]; 30.2 µM in assay [7]. Moreover, the GI50 in assay [8] was 15.5 µM; in assay [10], 23.4 µM. Further, the TGI in [1] is 34.9 µM; in assay [2], more than 100 µM; in assay [4], 44.5 µM; in assay [5] it was 75.4 µM; in assay [6], 58.5 µM; in assay [7], 77.7 µM. Moreover, the TGI in assay [8] worked out at 28.8 µM; in assay [10], 80.4 µM.
As for `CC1=NN(c2ccccc2)C(=O)/C1=C\c1ccc([N+](=O)[O-])cc1`, the TGI in [1] came out at 69.3 µM; in assay [2] it was 42.2 µM; in assay [3] it was 83.3 µM; in assay [4], 45.2 µM; in assay [5] it was 53.3 µM; in assay [7], 68.9 µM. For the same molecule, the TGI in assay [9] stood at 57.9 µM.
In the case of `Cc1ccc(NC(=O)C(=O)C(C(=O)/C=C/c2ccccc2)C2OC(=O)c3ccccc32)c(C)c1` (centres undefined), the TGI in assay [1], in [2], in assay [3], in assay [4], in [5] and in assay [6] was more than 100 µM throughout. In addition, the TGI in [7], in [8] and in assay [9] was more than 100 µM each time.
In the case of `c1ccc2c(c1)CCc1c-2n[nH]c1-c1[nH]nc2c1CCc1ccccc1-2`, the TGI in [1], in assay [3], in [4], in assay [5], in [6] and in assay [7] was more than 100 µM in each case. In assay [8], this molecule displayed a TGI of more than 100 µM.

These data come from PubChem BioAssay (NCI).
